Data on four molecules can be found in patent US20220119354A1, “DIAMINO-SUBSTITUTED PYRIDINES AND PYRIMIDINES AS HERBICIDES” (FMC Corporation, priority 2019, published 2022).

Data set [1] concerns galium (catchweed bedstraw, Galium aparine). As to the kind of experiment: Test A postemergence, galium. In kind it is in vivo. The note with it: Galium, post-emergence, 240 h, 0 to 100 scale, 0 no effect, 100 complete control, read-out: Plant response rating, Galium; for pest or weed control at 125 g/ha: 125 g ai/ha; for pest or weed control at 500 g/ha: 500 g ai/ha. The essentials:
(§1)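 Pots of loam–sand mix; preemergence directed soil spray at sowing, postemergence spray at one- to two-leaf stage. Readout: visual injury vs untreated controls, ~10 d, 0–100 scale.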

In data set [2] the test system is blackgrass (Alopecurus myosuroides). As to the kind of experiment: Test A postemergence, blackgrass. In kind it is in vivo. The note with it: Alopecurus myosuroides, post-emergence, 240 h, 0 to 100 scale, 0 no effect, 100 complete control, read-out: Plant response rating, Blackgrass; for pest or weed control at 125 g/ha: 125 g ai/ha; for pest or weed control at 500 g/ha: 500 g ai/ha. In outline: as §1

For data set [3], the system named is pigweed (Amaranthus retroflexus). As to the kind of experiment: Test A postemergence, pigweed. The note with it: Amaranthus retroflexus, post-emergence, 240 h, 0 to 100 scale, 0 no effect, 100 complete control, read-out: Plant response rating, Pigweed; for pest or weed control at 125 g/ha: 125 g ai/ha; for pest or weed control at 500 g/ha: 500 g ai/ha. It is filed as in vivo. The essentials: as §1

In general, melting point refers to the temperature of the solid-liquid transition.

In the case of `C[C@@H](Nc1ncc(C(F)(F)F)c(N)n1)c1cc2cccc(F)c2o1` [Compound 71, N2-[(1R)-1-(7-fluoro-2-benzofuranyl)ethyl]-5-(trifluoromethyl)-2,4-pyrimidinediamine], the results for the pest or weed control at 125 g/ha in data set [1], in data set [2] and in data set [3] were 80%, 0% and 100%, respectively. The figures for the pest or weed control at 500 g/ha in data set [1], in data set [2] and in data set [3] were 90%, 50% and 100%, respectively.
Take `C[C@@H](Nc1ncc(C(F)(F)F)c(N)n1)c1cc2cccc(F)c2s1` [Compound 75, N2-[(1R)-1-(7-fluorobenzo[b]thien-2-yl)ethyl]-5-(trifluoromethyl)-2,4-pyrimidinediamine]: the pest or weed control at 125 g/ha in data set [1] came to 80%; in data set [2], 0%; in data set [3] it was 100%. Further, the pest or weed control at 500 g/ha in data set [1] came out at 80%; in data set [2] it was 30%; in data set [3] it was 100%.
In the case of `C[C@@H](Nc1ncc(C(F)(F)F)c(N)n1)c1cc2c(F)cccc2o1` [Compound 73, N2-[(1R)-1-(4-fluoro-2-benzofuranyl)ethyl]-5-(trifluoromethyl)-2,4-pyrimidinediamine], the pest or weed control at 125 g/ha in data set [1] came out at 90%; in data set [2], 50%; in data set [3] it was 100%. Further, the values for the pest or weed control at 500 g/ha in data set [1], in data set [2] and in data set [3] were 90%, 80% and 100%, respectively.
`C[C@@H](Nc1ncc(C(F)(F)F)c(N)n1)c1cc2c(F)cccc2s1` [Compound 61, N2-[(1R)-1-(4-fluorobenzo[b]thien-2-yl)ethyl]-5-(trifluoromethyl)-2,4-pyrimidinediamine] registered a melting point of 137 to 141 °C. Also, in data set [1], the pest or weed control at 125 g/ha was found to be 70% and the pest or weed control at 500 g/ha came out at 100%. For the same molecule, in data set [2], the pest or weed control at 125 g/ha amounted to 80% and the pest or weed control at 500 g/ha came to 70%. In addition, in data set [3], the pest or weed control at 125 g/ha turned out to be 100% and the pest or weed control at 500 g/ha stood at 100%.
